Test results published in ChEMBL document CHEMBL1129223, “1-Oxo-3-aryl-1H-indene-2-carboxylic acid derivatives as selective inhibitors of fibroblast growth factor receptor-1 tyrosine kinase” (Bioorg Med Chem Lett, 1997).

Tests used:
[1] = molecular target: T1, Proto-oncogene tyrosine-protein kinase Src (Homo sapiens, UniProt P12931); test: Inhibitory activity against c-src tyrosine kinase at 50 uM
[2] = molecular target: T2, Fibroblast growth factor receptor (Homo sapiens, UniProt P22607+P11362+P22455+P21802); test: Inhibitory activity against fibroblast growth factor receptor (FGFr); assay type: protein assay
[3] = molecular target: Platelet-derived growth factor receptor (Homo sapiens) (UniProt P09619+P16234); test: Inhibitory activity against platelet-derived growth factor receptor (PDGFr) at 50 uM
[4] = molecular target: T2, Fibroblast growth factor receptor; test: Inhibitory activity against fibroblast growth factor receptor (FGFr) at 50 uM; assay type: protein assay
[5] = molecular target: T1, Proto-oncogene tyrosine-protein kinase Src; test: Inhibitory activity against c-src tyrosine kinase

T1 sequence (P12931 2-536 limits assumed): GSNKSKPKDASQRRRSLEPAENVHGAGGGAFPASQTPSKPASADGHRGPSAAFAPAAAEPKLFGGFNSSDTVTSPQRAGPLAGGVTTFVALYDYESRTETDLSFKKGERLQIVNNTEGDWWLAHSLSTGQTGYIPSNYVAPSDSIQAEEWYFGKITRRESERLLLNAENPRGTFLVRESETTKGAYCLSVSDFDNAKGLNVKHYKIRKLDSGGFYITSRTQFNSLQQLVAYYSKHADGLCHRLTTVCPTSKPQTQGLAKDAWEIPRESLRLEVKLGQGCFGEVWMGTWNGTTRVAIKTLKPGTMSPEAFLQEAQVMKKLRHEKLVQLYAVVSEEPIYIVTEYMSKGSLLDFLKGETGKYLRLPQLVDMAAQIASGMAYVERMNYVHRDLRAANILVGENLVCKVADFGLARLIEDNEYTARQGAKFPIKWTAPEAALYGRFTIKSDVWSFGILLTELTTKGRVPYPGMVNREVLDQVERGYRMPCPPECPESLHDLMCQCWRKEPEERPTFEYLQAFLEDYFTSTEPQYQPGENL
T2 sequence (P11362 whole entry, looked up): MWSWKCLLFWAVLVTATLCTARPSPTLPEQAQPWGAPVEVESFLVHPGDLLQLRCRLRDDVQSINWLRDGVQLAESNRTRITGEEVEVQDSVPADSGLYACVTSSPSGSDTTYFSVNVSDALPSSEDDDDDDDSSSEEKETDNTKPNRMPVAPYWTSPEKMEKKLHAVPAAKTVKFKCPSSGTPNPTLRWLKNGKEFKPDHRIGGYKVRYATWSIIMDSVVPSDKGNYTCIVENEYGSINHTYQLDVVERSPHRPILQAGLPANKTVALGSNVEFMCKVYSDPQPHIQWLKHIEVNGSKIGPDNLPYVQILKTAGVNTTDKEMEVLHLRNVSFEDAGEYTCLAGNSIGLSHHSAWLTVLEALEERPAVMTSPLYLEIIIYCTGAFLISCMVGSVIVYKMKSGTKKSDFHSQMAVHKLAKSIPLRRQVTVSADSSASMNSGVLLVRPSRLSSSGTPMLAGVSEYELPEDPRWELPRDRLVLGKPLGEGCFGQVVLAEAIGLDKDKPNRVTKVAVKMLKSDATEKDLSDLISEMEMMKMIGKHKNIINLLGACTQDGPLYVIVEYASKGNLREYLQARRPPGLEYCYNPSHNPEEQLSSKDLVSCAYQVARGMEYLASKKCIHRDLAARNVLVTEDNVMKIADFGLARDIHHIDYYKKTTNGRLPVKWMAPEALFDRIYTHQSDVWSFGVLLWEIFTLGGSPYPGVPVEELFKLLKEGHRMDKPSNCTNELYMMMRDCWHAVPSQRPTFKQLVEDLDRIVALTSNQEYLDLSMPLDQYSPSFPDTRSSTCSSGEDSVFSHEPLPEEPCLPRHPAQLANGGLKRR
T2 sequence (P21802 whole entry, looked up): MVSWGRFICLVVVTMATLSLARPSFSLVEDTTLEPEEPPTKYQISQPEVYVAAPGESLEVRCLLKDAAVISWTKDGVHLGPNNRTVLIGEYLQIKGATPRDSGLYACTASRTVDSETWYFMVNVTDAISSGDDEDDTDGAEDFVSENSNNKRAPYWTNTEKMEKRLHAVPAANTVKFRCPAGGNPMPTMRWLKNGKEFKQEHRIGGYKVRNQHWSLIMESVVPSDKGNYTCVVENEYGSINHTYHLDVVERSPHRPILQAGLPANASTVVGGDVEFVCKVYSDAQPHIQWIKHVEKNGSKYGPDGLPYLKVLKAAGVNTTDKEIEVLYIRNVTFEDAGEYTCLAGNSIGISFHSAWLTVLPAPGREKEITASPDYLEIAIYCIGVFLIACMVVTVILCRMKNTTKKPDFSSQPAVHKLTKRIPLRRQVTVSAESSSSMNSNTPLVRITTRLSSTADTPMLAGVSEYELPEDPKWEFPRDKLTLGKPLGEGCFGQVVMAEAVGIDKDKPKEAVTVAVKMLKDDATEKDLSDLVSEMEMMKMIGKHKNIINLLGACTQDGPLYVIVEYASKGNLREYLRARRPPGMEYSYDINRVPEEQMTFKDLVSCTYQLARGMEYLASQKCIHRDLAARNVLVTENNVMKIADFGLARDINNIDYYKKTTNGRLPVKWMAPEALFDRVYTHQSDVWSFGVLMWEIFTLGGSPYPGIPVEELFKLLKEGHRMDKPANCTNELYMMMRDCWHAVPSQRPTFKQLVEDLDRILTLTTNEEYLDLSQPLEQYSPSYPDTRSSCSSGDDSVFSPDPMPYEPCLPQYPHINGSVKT
T2 sequence (P22455 whole entry, looked up): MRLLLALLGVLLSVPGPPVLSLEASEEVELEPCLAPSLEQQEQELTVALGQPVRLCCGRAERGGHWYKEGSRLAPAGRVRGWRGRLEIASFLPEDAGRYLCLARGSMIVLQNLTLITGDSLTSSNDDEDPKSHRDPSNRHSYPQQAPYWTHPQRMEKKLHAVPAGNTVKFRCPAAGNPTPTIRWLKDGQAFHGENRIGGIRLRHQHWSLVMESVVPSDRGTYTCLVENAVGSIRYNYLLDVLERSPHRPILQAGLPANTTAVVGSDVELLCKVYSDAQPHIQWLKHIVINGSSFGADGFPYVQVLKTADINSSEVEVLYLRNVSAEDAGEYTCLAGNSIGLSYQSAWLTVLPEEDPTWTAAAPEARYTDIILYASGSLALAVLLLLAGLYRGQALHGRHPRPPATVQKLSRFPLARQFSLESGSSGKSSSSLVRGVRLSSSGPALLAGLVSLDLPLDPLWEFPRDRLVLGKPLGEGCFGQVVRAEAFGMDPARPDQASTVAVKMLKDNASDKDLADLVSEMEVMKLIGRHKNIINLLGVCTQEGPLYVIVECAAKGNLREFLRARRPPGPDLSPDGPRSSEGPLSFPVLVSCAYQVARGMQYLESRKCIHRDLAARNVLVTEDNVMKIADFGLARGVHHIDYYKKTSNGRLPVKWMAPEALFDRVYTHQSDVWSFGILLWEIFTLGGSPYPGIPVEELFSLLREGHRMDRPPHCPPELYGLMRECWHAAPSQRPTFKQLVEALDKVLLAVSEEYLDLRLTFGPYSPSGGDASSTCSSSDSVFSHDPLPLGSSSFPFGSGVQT
T2 sequence (P22607 whole entry, looked up): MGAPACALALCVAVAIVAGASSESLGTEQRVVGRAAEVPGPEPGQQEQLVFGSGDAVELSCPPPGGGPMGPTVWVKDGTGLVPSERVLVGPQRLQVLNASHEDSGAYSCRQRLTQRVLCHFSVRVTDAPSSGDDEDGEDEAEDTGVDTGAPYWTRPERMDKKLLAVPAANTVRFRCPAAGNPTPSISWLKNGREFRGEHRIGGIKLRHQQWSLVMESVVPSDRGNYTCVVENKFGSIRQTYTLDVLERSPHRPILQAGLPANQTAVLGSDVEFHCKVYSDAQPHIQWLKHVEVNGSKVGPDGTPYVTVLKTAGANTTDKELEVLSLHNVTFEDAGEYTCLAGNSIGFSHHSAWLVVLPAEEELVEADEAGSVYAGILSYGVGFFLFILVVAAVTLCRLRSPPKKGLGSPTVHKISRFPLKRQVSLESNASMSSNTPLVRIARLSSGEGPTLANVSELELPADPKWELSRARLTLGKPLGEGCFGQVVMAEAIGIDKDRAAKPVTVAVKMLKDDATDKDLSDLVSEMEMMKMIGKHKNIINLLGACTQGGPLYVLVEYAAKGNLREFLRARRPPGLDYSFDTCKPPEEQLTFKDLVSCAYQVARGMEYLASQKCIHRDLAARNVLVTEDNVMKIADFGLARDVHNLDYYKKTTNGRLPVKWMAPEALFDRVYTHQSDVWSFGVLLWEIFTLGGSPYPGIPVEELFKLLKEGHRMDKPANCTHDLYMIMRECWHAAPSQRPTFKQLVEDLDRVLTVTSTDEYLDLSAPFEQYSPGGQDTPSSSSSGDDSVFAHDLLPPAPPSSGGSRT

Row | inhibition [1] [%] | IC50 [2] [µM] | inhibition [3] [%] | inhibition [4] [%] | IC50 [5] [µM] | SMILES
1 | 38 | 44 | 11 | – | – | COC(=O)C1=C(c2ccccc2)c2cccc(C)c2C1=O
2 | 27 | – | 10 | 29 | – | NC(=O)C1=C(c2ccccc2)c2ccccc2C1O (configuration not stated)
3 | – | 15 | 19 | – | 13 | COC(=O)C1=C(c2ccccc2)c2c(OC)cccc2C1=O
4 | – | 10 | 19 | – | 8.3 | COC(=O)C1=C(c2ccccc2)c2cc([N+](=O)[O-])ccc2C1=O.COC(=O)C1=C(c2ccccc2)c2ccc([N+](=O)[O-])cc2C1=O
5 | 1 | – | 10 | 10 | – | CN(C)C(=O)C1=C(c2ccccc2)c2ccccc2C1=O
6 | – | 6.4 | 20 | – | 33 | COC(=O)C1=C(c2ccccc2)c2cc(C)ccc2C1=O.COC(=O)C1=C(c2ccccc2)c2ccc(C)cc2C1=O
7 | 7 | 25 | 9 | – | – | O=C(O)C1=C(c2ccccc2)c2ccccc2C1=O
8 | 11 | – | 8 | 21 | – | CCN(CC)CCNC(=O)C1=C(c2ccccc2)c2ccccc2C1=O
9 | – | 5.4 | 27 | – | 9.6 | NC(=O)C1=C(c2ccc(Cl)cc2)c2ccccc2C1=O
10 | 3 | – | 8 | 26 | – | C/C=C1\c2ccccc2C(=O)C1C(N)=O (configuration not stated)
11 | – | 6.8 | 27 | – | 7.6 | COC(=O)C1=C(c2ccccc2)c2ccncc2C1=O
12 | – | 4.7 | 25 | – | 3.6 | NC(=O)C1=C(c2ccccc2)c2ccccc2C1=O
13 | 16 | 21 | 24 | – | – | CNC(=O)C1=C(c2ccccc2)c2ccccc2C1=O
14 | 48 | 4.2 | 25 | – | – | NC(=O)C1=C2CCCc3cccc(c32)C1=O
15 | – | 5.1 | 19 | – | 25 | COC(=O)C1=C(c2ccccc2)c2ccccc2C1=O
16 | 53 | 9.2 | 8.7 | – | – | CCC1=C(C(N)=O)C(=O)c2ccccc21
17 | 10 | 6.2 | 25 | – | – | COC(=O)C1=C(c2ccccc2)c2cc(Cl)ccc2C1=O.COC(=O)C1=C(c2ccccc2)c2ccc(Cl)cc2C1=O
18 | 8 | – | 16 | 23 | – | NC(=O)C1C(=O)c2ccccc2C1c1ccccc1 (configuration not stated)
19 | – | 10.6 | 23 | – | 4 | COc1ccc(C2=C(C(N)=O)C(=O)c3ccccc32)cc1
